Tests used:
6-OHDA lesioned rats = assay: Amphetamine-induced rotometry in the 6OHDA lesion model of Parkinson's disease; assay type: in vivo, rat; settings: for recovery in rotational bias: single intraventricular injection 2 weeks after lesion, measured over next 13 weeks, n=4-7 (FIG. 13a)
Experimental: Pharmacological treatments.
To investigate the clinical potential of this treatment approach, the compounds were used in an animal model of Parkinson's disease. Adult rats were lesioned by intra-striatal 6-OH-DA (Przedborski, S. et al., Neuroscience 67, 631-47, 1995). After two weeks, a single injection of the compounds was administered in the lateral ventricle ipsilateral to the lesion. Amphetamine-induced rotations were measured bi-weekly throughout the experiment. Thirteen weeks after treatment they were given a single injection of fluorogold in the striatum to label the […] dopaminergic projection.

STAT3-Ser727 = STAT3-Ser727 phosphorylation in NSC cultures; assay type: cell-based, mouse
Experimental: Cell culture: E13.5 cortical embryonic mouse CNS stem cells were grown as previously described (Johe, et al., Genes Dev 10, 3129-40, 1996). Cells were expanded in serum-free DMEM/F12 medium with N2 supplement and FGF2 (20 ng/ml) for 5 days under 5% oxygen conditions and were re-plated fresh or from frozen stocks at 1,000-10,000 cells per cm^2. FGF2 was included throughout the studies, unless otherwise stated. […] Pharmacological treatments: Unless otherwise stated, the following concentrations were used: Dll4 and Ang-2 (in vitro, 500 ng/ml; in vivo 12.5 μg as a single injection), FGF2 (in vitro, 20 ng/ml), JAK inhibitor (in vitro, 200 nM; in vivo, 250 ng as a single injection), insulin (in vitro, 25 μg/ml; in vivo, 40 μg as a single injection), DAPT (1 μM), Fluorogold (0.5 μg). For the survival assays, compounds were added daily and Notch ligands every 2 days for the duration of the experiment. For the effects of kinase inhibitors on Notch activation, cells were pre-incubated for 1 h prior to Notch activation. […] Activation of the Notch receptor by addition of insulin or Dll4 was inhibited by DAPT, a γ-secretase inhibitor that blocks Notch cleavage. […] Insulin maintained STAT[…]727 phosphorylation levels, and acutely (1-h) induced it following a 16-h insulin withdrawal phase (FIG. 1c). […] Fetal NSCs in culture express Ang-1, and treatment (2 days) with Dll4 maintained it whereas CNTF reduced it. Ang-2 expression was maintained under these conditions. […] Ang-2 induced mTOR and STAT3-S727 phosphorylation, unlike Ang-1 (FIG. 2a). Ang-1, however, induced Akt phosphorylation.

NSC cultures = assay: Incidence of Tie-2 spikes in NSC cultures; assay type: cell-based; settings: for % of cells with at least one spike: NSC cultures; for spike number: thirty minutes after treatment
Experimental: A protrusion of the cell membrane was identified in neuronal stem cells (NSCs) when the Tie-2 receptor is concentrated. This can be visualized using antibodies that bind Tie-2. The protrusion was termed a spike. These spikes appear 30 minutes after treatment with pharmaceutical agents. […] increase spike number thirty minutes after treatment. […] Thus, a novel sub-cellular structure ahs been identified. These structures could regulate the responsiveness of cells to treatments.
Thus, a novel protrusion of the cell membrane in NSCs has been identified where the Tie-2 receptor is concentrated. This can be easily visualized using an antibody against Tie-2 that recognizes a particular epitope. […] Indeed, the spike is devoid of actin filaments or tubulin. The spikes can be detected within thirty minutes of contacting the cultures with an the factors. Thus, the spikes provide a rapid assay for the effect of pharmacologic agents.

adult mouse SVZ cultures = assay: Survival/generation of adult mouse SVZ NSC cultures (colony and cell number); assay type: cell-based
Experimental: (§1) Cell culture: E13.5 cortical embryonic mouse CNS stem cells were grown as previously described (Johe, et al., Genes Dev 10, 3129-40, 1996). Cells were expanded in serum-free DMEM/F12 medium with N2 supplement and FGF2 (20 ng/ml) for 5 days under 5% oxygen conditions and were re-plated fresh or from frozen stocks at 1,000-10,000 cells per cm^2. FGF2 was included throughout the studies, unless otherwise stated. Adult rat (3-6 months old) or adult mouse (2-4 months old) SVZ NSC cultures were grown in the same medium as the fetal cultures.
Pharmacological treatments: Unless otherwise stated, the following concentrations were used: Dll4 and Ang-2 (in vitro, 500 ng/ml; in vivo 12.5 μg as a single injection), FGF2 (in vitro, 20 ng/ml), JAK inhibitor (in vitro, 200 nM; in vivo, 250 ng as a single injection), insulin (in vitro, 25 μg/ml; in vivo, 40 μg as a single injection), DAPT (1 μM), Fluorogold (0.5 μg). For the survival assays, compounds were added daily and Notch ligands every 2 days for the duration of the experiment. For the effects of kinase inhibitors on Notch activation, cells were pre-incubated for 1 h prior to Notch activation.
Hes3 mRNA is present in fetal NSC cultures under conditions that support their self-renewal but CNTF-induced differentiation (Bonni, A. et al., Science 278, 477-83, 1997; Rajan & McKay, J Neurosci 18, 3620-9, 1998): downregulates Hes3 message (Androutsellis-Theotokis, A. et al., Nature 442, 823-6, 2006). Knockout studies have shown a role of Hes3 in self-renewal (Hatakeyama, J. et al., Development 131, 5539-50, 2004). It was investigated if Hes3 mediates stem cell functions in vitro to assess its use as a functional NSC marker. Fetal (E13.5) cortical tissue was dissociated and magnetic sorting was used to isolate a cell population that expressed AC133, an established marker of NSCs (Uchida, N. et al., Proc Natl Acad Sci USA 97, 14720-5, 2000). Sorted (AC133+) cells expressed Hes3 and Sox2, another established NSC marker (Zappone, M. V. et al., Development 127, 2367-82, 2000). […] To investigate if Hes3 is a mediator of pro-survival signals for NSCs, adult mouse SVZ cultures (which respond strongly to pro-survival signals) were treated with insulin, Dll4, and a combination of the two.

Ang-1 = Ang-1 expression in fetal NSC cultures; assay type: cell-based, mouse; settings: fetal NSCs in culture, treatment 2 days
Experimental: as §1
Fetal NSCs in culture express Ang-1, and treatment (2 days) with Dll4 maintained it whereas CNTF reduced it. Ang-2 expression was maintained under these conditions. […] Ang-2 induced mTOR and STAT3-S727 phosphorylation, unlike Ang-1 (FIG. 2a). Ang-1, however, induced Akt phosphorylation.

[1] = wild-type adult mouse SVZ cultures

Row | Substance | recovery in rotational bias (6-OHDA lesioned rats) | STAT3-S727 phosphorylation (STAT3-Ser727; NSC cultures, 0.5 μg/ml (FIG. 2a)) | % of cells with at least one spike (NSC cultures) [%] | spike number (NSC cultures) | colony number and overall cell number (adult mouse SVZ cultures; cells from Hes3 null mice) | colony number and overall cell number (adult mouse SVZ cultures; [1]) | amphetamine-induced rotations (behavioural recovery) (6-OHDA lesioned rats; single intra-ventricular injection 2 weeks after 6-OHDA lesion (FIG. 6a)) | Ang-1 expression (Ang-1) | STAT3-Ser727 phosphorylation (STAT3-Ser727; acute (1-h) addition following a 16-h insulin withdrawal) | STAT3-Ser727 phosphorylation levels (STAT3-Ser727; continued presence in NSC culture)
1 | Ang-2: human angiopoietin-2 (623-AN) from R&D; antagonist for angiopoietin-1 at Tie2 | complete and stable recovery | induced | 2.5 | increase | – | – | – | – | – | –
2 | Dll4: Notch ligand Delta-like 4; mouse Dll4 (1389-D4) from R&D | partial recovery | – | 2.1 | increase | moderate (but significant) benefits | great increase | long-lasting behavioural recovery | maintained | – | –
3 | insulin: insulin (Sigma, 19278), growth factor | – | – | – | – | moderate (but significant) benefits | great increase | – | – | induced | maintained

Source: patent US20110105393A1, “METHODS FOR PROMOTING STEM CELL PROLIFERATION AND SURVIVAL” (priority 2007, published 2011)
